Experimental data published in publication PMC5681660, “Reduced hepatitis B and D viral entry using clinically applied drugs as novel inhibitors of the bile acid transporter NTCP” (Scientific Reports, 2017).
“Also recorded” adds a separate entry of the source. Where two headings read alike, the source gives them in different places.

Tests used:
[1] = system: U2OS-HA-hNTCP cells; conditions: 2 hours
[2] = system: HBV; conditions: for HBV infection in HepaRG cells (in words): HBeAg, HBsAg, HBcAg, concentration-dependent; for number of HBcAg positive stained cells: HepaRG cells, day 10 post HBV infection, 50 µM
[3] = biological target: T1, human NTCP (Homo sapiens, UniProt Q14973); assay: Myrcludex B-FITC binding by confocal microscopy in U2OS-HA-hNTCP cells; set-up: HA; expressed in transfected cells; conditions: for Myrcludex B-FITC fluorescence / binding to U2OS-HA-hNTCP cells (in words): co-administration with increasing amounts of drug; for ≥50% loss of Myrcludex B binding to hNTCP (concentration): confocal microscopy, 0.2 µM Myrcludex B-FITC, drug 1, 10, 100 µM, concentration at which binding inhibited minimally 50%
T1 sequence (Q14973 1-349): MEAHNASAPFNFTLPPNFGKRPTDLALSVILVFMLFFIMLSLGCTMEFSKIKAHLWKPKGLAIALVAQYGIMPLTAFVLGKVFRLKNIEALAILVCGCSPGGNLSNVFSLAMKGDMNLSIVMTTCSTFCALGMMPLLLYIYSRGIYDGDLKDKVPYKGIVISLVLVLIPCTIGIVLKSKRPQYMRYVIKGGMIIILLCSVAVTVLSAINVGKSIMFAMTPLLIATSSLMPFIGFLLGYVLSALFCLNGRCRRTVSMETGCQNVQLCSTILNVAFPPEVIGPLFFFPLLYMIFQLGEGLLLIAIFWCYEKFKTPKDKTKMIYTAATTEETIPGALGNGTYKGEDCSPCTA
Procedure: After 24 hours, medium was aspirated and cells were washed once with 300 µl Leibovitz’s L-15 Medium (Invitrogen). A 30 minute incubation period followed in which all cells were incubated with 0.2 µM Myrcludex B-FITC with or without drug (1, 10, 100 µM) and Hoechst (1/1000) in 300 µL Leibovitz’s L-15 Medium. Cells were washed twice with Leibovitz’s L-15 Medium and subsequently 400 µL Leibovitz’s L-15 Medium was added. Live cell fluorescent imaging was performed using a Leica SP8X-SMD confocal microscope with fully enclosed incubation at 37 °C. A 63x oil objective was used and images were captured while the cells were consecutively excited at 490 nm (FITC) 350 nm (Hoechst). ImageJ software (National Insititutes of Health, Bethesda, MD) was employed for data analysis.

[4] = biological target: T2, human ASBT (Homo sapiens, UniProt Q12908); assay: Taurocholate uptake in MDCK-hASBT cells; assay type: cell-based; conditions: compared with NTCP
T2 construct: expressed in transfected cells; gift of Paul Dawson; induced with sodium butyrate
T2 sequence (Q12908 1-348): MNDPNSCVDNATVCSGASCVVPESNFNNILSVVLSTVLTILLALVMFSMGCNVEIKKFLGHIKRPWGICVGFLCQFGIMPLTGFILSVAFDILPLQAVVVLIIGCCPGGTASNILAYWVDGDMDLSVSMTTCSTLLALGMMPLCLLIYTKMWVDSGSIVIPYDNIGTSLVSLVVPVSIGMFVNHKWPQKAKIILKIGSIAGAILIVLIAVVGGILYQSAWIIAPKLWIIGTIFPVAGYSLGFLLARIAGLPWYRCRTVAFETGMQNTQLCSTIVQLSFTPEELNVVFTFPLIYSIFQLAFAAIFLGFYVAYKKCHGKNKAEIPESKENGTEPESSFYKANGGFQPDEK
Procedure: (§1) U2OS and MDCK cells were grown in Dulbecco’s modified Eagle’s medium (DMEM, Sigma-Aldrich), supplemented with 10% FCS (Gibco), 1% L-glutamine (Lonza), and 1% penicillin/streptomycin (Lonza). […] Transient transfection of U2OS cells with mouse NTCP (mNTCP) was done with PEI reagent (Brunschwig, Basel, Switzerland). Shortly, U2OS cells were seeded one day prior to transfection in 24-well plates. On the day of transfection, 0.5 µg DNA was mixed with 100 µl unsupplemented DMEM and 3 µg/µl PEI. After 10–15 minute incubation at RT, 20 µl of the transfection mix was added to each 24-well. Transfected cells were used in further experiments 48–72 hours later. Cell lines were passaged twice a week at a confluence of 80%, and incubated in a humidified atmosphere of 37 °C + 5% CO2.
(§2) For MDCK or MDCK-hASBT cells 70.000 cells/well were plated in 24-well plates, followed by 24 hours 10 mM sodium butyrate (Sigma-Aldrich) stimulation the next day. Cells were used in the inhibition studies 24 hours (U2OS cell lines) or 48 hours (MDCK cell lines) later. Inhibition studies with mNTCP transiently transfected cells were conducted 48–72 hours after transfection.
(§3) Medium was aspirated from the wells and cells were washed once with 250 µL uptake buffer. Subsequently, cells were pre-incubated with drug in 150 µL uptake buffer for 10 minutes at 37 °C. Taurocholate uptake was initiated by addition of 100 µL uptake buffer containing taurocholate (final concentration 10 µM TC spiked with tritium-labeled TC) and cells were incubated for 2 minutes at 37 °C. Subsequently, cells were washed 4 times with ice-cold PBS and lysed with 0.05% SDS in water. Radioactivity was measured by liquid scintillation counting.

[5] = system: HDV; assay: HDV infection of HepaRG cells (HDAg immunofluorescence); assay type: cell-based, hepatitis delta virus; conditions: HDAg positive cells, day 5; concentration-dependent
[6] = biological target: T3, mouse NTCP (Mus musculus, UniProt O08705); assay: Taurocholate uptake in U2OS cells transiently transfected with mouse NTCP; assay type: cell-based; conditions: at the calculated IC50 value for hNTCP
T3 construct: expressed in transfected cells; host or cells: U2OS (transient transfection, PEI)
T3 sequence (O08705 1-362): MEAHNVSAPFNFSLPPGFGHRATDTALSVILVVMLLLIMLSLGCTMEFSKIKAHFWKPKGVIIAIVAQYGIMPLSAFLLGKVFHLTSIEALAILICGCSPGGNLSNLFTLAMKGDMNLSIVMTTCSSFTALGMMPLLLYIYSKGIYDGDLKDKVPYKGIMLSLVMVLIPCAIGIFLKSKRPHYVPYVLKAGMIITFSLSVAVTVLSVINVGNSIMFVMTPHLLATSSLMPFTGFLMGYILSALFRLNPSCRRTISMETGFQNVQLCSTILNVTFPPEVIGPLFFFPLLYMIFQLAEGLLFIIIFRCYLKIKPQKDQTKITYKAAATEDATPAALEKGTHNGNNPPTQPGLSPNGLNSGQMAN
Procedure: as §1, §2, §3

[7] = biological target: T1, human NTCP; assay: Taurocholate uptake inhibition studies in U2OS-HA-hNTCP cells; assay type: cell-based; set-up: HA; expressed in transfected cells; conditions: for concentration at which NTCP was inhibited in repeated measurements of TC-uptake and Myrcludex B binding: both TC uptake and Myrcludex B binding; for Taurocholate uptake into U2OS-HA-hNTCP cells (in words): increasing drug concentrations
Procedure: as §2, §3

[8] = biological target: T1, human NTCP; assay: Screening taurocholate uptake assay (96-well, [14C]taurocholate, 10 µM drug); conditions: for Ranking score: ranking over the functional and the binding screening assay; for B-score functional assay: screening taurocholate uptake, 10 µM drug
[9] = system: U2OS cells; assay: WST-1 cytotoxicity, wildtype U2OS cells; conditions: U2OS cells, 2 hours
[10] = in vitro; conditions: human, U2OS-HA-hNTCP cells
[11] = WST-1 cytotoxicity, wildtype U2OS cells; conditions: human; for viability at 2 h, 1 µM / viability at 2 h, 10 µM / viability at 2 h, 100 µM: wildtype U2OS cells
[12] = HepaRG cells infected with HBV, supernatant day 7 to 10
[13] = U2OS-HA-hNTCP cells, concentrations 1 nM to 10 mM, read-out: IC50 for hNTCP-mediated TC uptake

| SMILES | HBV infection in HepaRG cells (in words) [2] | concentration effective in reducing HBeAg and HBsAg production [2, 12] [µM] | number of HBcAg positive stained cells [2] | Myrcludex B-FITC fluorescence / binding to U2OS-HA-hNTCP cells (in words) [3] | ≥50% loss of Myrcludex B binding to hNTCP (concentration) [3] [µM] | inhibition of ASBT-mediated taurocholate uptake [4] | HDV infection in HepaRG cells (in words) [5] | inhibition of mouse Ntcp-mediated taurocholate uptake compared with human NTCP [6] | concentration at which NTCP was inhibited in repeated measurements of TC-uptake and Myrcludex B binding ([7]; U2OS-HA-hNTCP cells) [µM] | IC50 [7, 13] [µM] | Taurocholate uptake into U2OS-HA-hNTCP cells (in words) [7] | Ranking score [8] | B-score functional assay [8] | viability at 2 h, 1 µM [10] [%] | viability at 2 h, 10 µM [10] [%] | viability at 2 h, 100 µM [10] [%] | viability at 2 h, 1 µM [11] [%] | viability at 2 h, 10 µM [11] [%] | viability at 2 h, 100 µM [11] [%] | viability at 1 µM [11] [%] | other results |
| --- | --- | --- | --- | --- | --- | --- | --- | --- | --- | --- | --- | --- | --- | --- | --- | --- | --- | --- | --- | --- | --- |
| COc1cc(-c2ccc(N=Nc3ccc4c(S(=O)(=O)[O-])cc(S(=O)(=O)[O-])c(N)c4c3O)c(OC)c2)ccc1N=Nc1ccc2c(S(=O)(=O)[O-])cc(S(=O)(=O)[O-])c(N)c2c1O.[Na+].[Na+].[Na+].[Na+] [Chicago Sky Blue 6B] | reduced HBV/HDV infection | 17 | severely reduced | reduced | ≥1 | inhibited ASBT to a similar extent as NTCP; also recorded: inhibit ASBT in a concentration-dependent fashion | reduced HBV/HDV infection | more capable of inhibiting mouse Ntcp; also recorded: more potent in inhibiting mouse NTCP | ≤ 10 | 7.1 | reduced | 17.4642 | -3.126 |  |  |  |  |  |  |  | cell viability by WST-1 ([1]; 1 µM): 87.8 ± 7.2%; cell viability by WST-1 ([1]; 10 µM): 95.8 ± 5.9%; cell viability by WST-1 ([1]; 100 µM): 110.9 ± 9.4%; cell viability by WST-1 ([9]; 1 µM): 91.0 ± 9.3%; cell viability by WST-1 ([9]; 10 µM): 93.9 ± 5.4%; cell viability by WST-1 ([9]; 100 µM): 108.7 ± 5.6% |
| O=C(O)c1ccccc1Nc1cccc(C(F)(F)F)c1 [Flufenamic Acid, Flufenamic acid] |  |  |  | reduced Myrcludex B-FITC fluorescence | ≥100 |  |  | more capable of inhibiting mouse Ntcp; also recorded: more potent in inhibiting mouse NTCP |  | 10 | reduced in a dose-dependent fashion | 48.7852 | -5.588 | 125 ± 15.2 | 118 ± 9.6 | 107 ± 9.6 | 109 ± 9.1 | 108 ± 8.5 | 104 ± 3.6 |  | ≥50% loss of Myrcludex B binding to hNTCP (concentration) ([3]; listed as Flufenamic acid): ≤ 100 µM |
| CN(CCOc1ccc(CC2SC(=O)NC2=O)cc1)c1ccccn1 (centres unmarked) [Rosiglitazone] | reduced HBV/HDV infection; also recorded: reduce |  | severely reduced |  |  | inhibited ASBT less effectively and at higher concentrations than observed for NTCP; also recorded: inhibit ASBT in a concentration-dependent fashion | reduced HBV/HDV infection; also recorded: reduce | more capable of inhibiting mouse Ntcp; also recorded: more potent in inhibiting mouse NTCP |  |  |  |  |  | 111 ± 4.4 | 106 ± 4.5 | 103 ± 6 | 104 ± 7.2 | 107 ± 3.4 | 104 ± 2.5 |  | concentration effective in reducing HBsAg [2, 12]: ≥ 50 µM; IC50 [7]: 5.1 µM |
| Cc1c(Cl)cccc1Nc1ccccc1C(=O)O [Tolfenamic Acid, Tolfenamic acid] |  |  |  | reduced Myrcludex B-FITC fluorescence | ≥100 |  |  | inhibited similarly as human NTCP |  | 12.5 | reduced in a dose-dependent fashion | 28.5657 | -4.169 | 116 ± 10.3 | 118 ± 13 | 107 ± 12.4 |  |  |  | 94.7 ± 6.3 | ≥50% loss of Myrcludex B binding to hNTCP (concentration) ([3]; listed as tolfenamic acid): ≤ 100 µM; viability at 10 µM [11]: 105 ± 11.7%; viability at 100 µM [11]: 82.1 ± 4.8% |
| COc1cc(C(=O)NS(=O)(=O)c2ccccc2C)ccc1Cc1cn(C)c2ccc(NC(=O)OC3CCCC3)cc12 [Zafirlukast] | reduced HBV/HDV infection; also recorded: reduce | 17 | severely reduced | reduced Myrcludex B-FITC fluorescence | ≥1 | inhibited ASBT less effectively and at higher concentrations than observed for NTCP; also recorded: inhibit ASBT in a concentration-dependent fashion | reduced HBV/HDV infection; also recorded: reduce | inhibited similarly as human NTCP | ≤ 10 | 6.5 | reduced | 4.472 | -7.741 | 94.7 ± 12.7 | 87.1 ± 12.3 | 77.7 ± 8 |  |  |  | 87.7 ± 4.8 | decreased Myrcludex B binding ([3]; at 10 µM): more than 50%; viability at 10 µM [11]: 94.1 ± 2.7%; viability at 100 µM [11]: 73 ± 5.8% |
